Laboratory results from ChEMBL document CHEMBL5712909, “WDR5 inhibition halts metastasis dissemination by repressing the mesenchymal phenotype of breast cancer cells” (2019).
Calls of active or inactive are those of the source. The rule behind the calls is not given here.

What was measured:
MDA-MB-231 [1] = test: Induction of cell cycle arrest in human MDA-MB-231 cells assessed as accumulation of cells in not cycling S phase at 20 microM for 3 days by BrDU and PI staining based flow cytometric analysis (reference value: 2.5%); type: functional
MBC26 [2] = test: Antiproliferative activity against human MBC26 cells assessed as reduction in cell viability at 20 uM for 3 days by cell titre glo assay; type: functional, cell-based; details: time 3.0 day
MCF-10A = test: Inhibition of cell migration in human MCF-10A cells assessed as reduction in cell migration incubated for 3 days by crystal violet staining based transwell assay; type: functional; details: dose 1-20 µM, time 3.0 day
MDA-MB-231 [3] = test: Inhibition of cell migration in human MDA-MB-231 cells assessed as reduction in cell migration incubated for 3 days by crystal violet staining based transwell assay; type: functional; details: dose 1-20 µM, time 3.0 day
MDA-MB-231 [4] = test: Induction of cell cycle arrest in human MDA-MB-231 cells assessed as accumulation of cells in G2/M phase at 10 uM for 3 days by BrDU and PI staining based flow cytometric analysis (reference value: 19.3%); type: functional
MDA-MB-231 [5] = test: Induction of cell cycle arrest in human MDA-MB-231 cells assessed as accumulation of cells in G2/M phase at 20 microM for 3 days by BrDU and PI staining based flow cytometric analysis (reference value: 19.3%); type: functional; details: time 3 day
MDA-MB-231 [6] = test: Induction of cell cycle arrest in human MDA-MB-231 cells assessed as accumulation of cells in S phase at 20 microM for 3 days by BrDU and PI staining based flow cytometric analysis (reference value: 45.7%); type: functional
MBC2 [7] = test: Antiproliferative activity against human MBC2 cells assessed as reduction in cell viability at 20 uM for 3 days by cell titre glo assay; type: functional, cell-based; details: time 3.0 day
MCF10DCIS [8] = test: Inhibition of cell migration in human MCF10DCIS cells assessed as reduction in cell migration incubated for 3 days by crystal violet staining based transwell assay; type: functional; details: dose 1-20 µM, time 3.0 day
MBC2 [9] = test: Inhibition of cell migration in human MBC2 cells assessed as reduction in cell migration at 20 microM for 3 days by crystal violet staining based transwell assay; type: functional; details: time 3.0 day
MDA-MB-231 [10] = test: Induction of cell cycle arrest in human MDA-MB-231 cells assessed as accumulation of cells in G2/M phase at 10 nM for 3 days by BrDU and PI staining based flow cytometric analysis (reference value: 19.3%); type: functional
MDA-MB-231 [11] = test: Induction of cell cycle arrest in human MDA-MB-231 cells assessed as accumulation of cells in G0/G1 phase at 10 nM for 3 days by BrDU and PI staining based flow cytometric analysis (reference value: 30.5%); type: functional
MDA-MB-231 [12] = test: Induction of cell cycle arrest in human MDA-MB-231 cells assessed as accumulation of cells in G0/G1 phase at 20 microM for 3 days by BrDU and PI staining based flow cytometric analysis (reference value: 30.5%); type: functional; details: time 3 day
MDA-MB-231 [13] = test: Induction of cell cycle arrest in human MDA-MB-231 cells assessed as accumulation of cells in G0/G1 phase at 10 uM for 3 days by BrDU and PI staining based flow cytometric analysis (reference value: 30.5%); type: functional
MBC26 [14] = test: Inhibition of cell migration in human MBC26 cells assessed as reduction in cell migration at 20 microM for 3 days by crystal violet staining based transwell assay; type: functional; details: time 3.0 day
MDA-MB-231 [15] = test: Induction of cell cycle arrest in human MDA-MB-231 cells assessed as accumulation of cells in not cycling S phase at 10 nM for 3 days by BrDU and PI staining based flow cytometric analysis (reference value: 2.5%); type: functional
MDA-MB-231 [16] = test: Inhibition of cell migration in human MDA-MB-231 cells assessed as reduction in cell migration at 10 microM for 3 days by crystal violet staining based transwell assay; type: functional; details: time 3.0 day
MBC26 [17] = test: Antiproliferative activity against human MBC26 cells assessed as reduction in cell viability at 10 uM for 3 days by cell titre glo assay; type: functional, cell-based; details: time 3.0 day
MDA-MB-231 [18] = test: Induction of cell cycle arrest in human MDA-MB-231 cells assessed as accumulation of cells in S phase at 10 uM for 3 days by BrDU and PI staining based flow cytometric analysis (reference value: 45.7%); type: functional; details: time 3 day
MBC2 [19] = test: Antiproliferative activity against human MBC2 cells assessed as reduction in cell viability at 10 uM for 3 days by cell titre glo assay; type: functional, cell-based; details: time 3.0 day
MDA-MB-231 [20] = test: Induction of cell cycle arrest in human MDA-MB-231 cells assessed as accumulation of cells in not cycling S phase at 10 uM for 3 days by BrDU and PI staining based flow cytometric analysis (reference value: 2.5%); type: functional; details: time 3 day
MDA-MB-231 [21] = test: Induction of cell cycle arrest in human MDA-MB-231 cells assessed as accumulation of cells in S phase at 10 nM for 3 days by BrDU and PI staining based flow cytometric analysis (reference value: 45.7%); type: functional
MCF10DCIS [22] = test: Inhibition of cell migration in human MCF10DCIS cells assessed as reduction in cell migration at 10 microM for 3 days by crystal violet staining based transwell assay; type: functional; details: time 3.0 day
MDA-MB-231 [23] = test: Induction of cell cycle arrest in human MDA-MB-231 cells assessed as cleaved PARP at 10 nM for 3 days in presence of OICR-9429 by Western blot analysis; type: functional, cell-based; details: time 3.0 day
MDA-MB-231 [24] = test: Induction of cell cycle arrest in human MDA-MB-231 cells assessed as accumulation of cells in G0/G1 phase at 10 nM for 3 days in presence of galunisertib by BrDU and PI staining based flow cytometric analysis (reference value: 30.5%); type: functional; details: time 3 day
MDA-MB-231 [25] = test: Induction of cell cycle arrest in human MDA-MB-231 cells assessed as accumulation of cells in not cycling S phase at 10 nM for 3 days in presence of galunisertib by BrDU and PI staining based flow cytometric analysis (reference value: 2.5%); type: functional; details: time 3 day
MDA-MB-231 [26] = test: Induction of cell cycle arrest in human MDA-MB-231 cells assessed as accumulation of cells in G0/G1 phase at 10 nM for 3 days in presence of OCIR-9429 by BrDU and PI staining based flow cytometric analysis (reference value: 30.5%); type: functional; details: time 3 day
MDA-MB-231 [27] = test: Induction of cell cycle arrest in human MDA-MB-231 cells assessed as accumulation of cells in S phase at 10 nM for 3 days in presence of OCIR-9429 by BrDU and PI staining based flow cytometric analysis (reference value: 45.7%); type: functional; details: time 3 day
MBC26 [28] = test: Cytotoxicity against human MBC26 cells assessed as cell viability for 3 days at 1 to 10 nM in presence of -Gaulnisertib; type: functional, cell-based; details: dose 1-10 nM, time 3.0 day
MBC2 [29] = test: Cytotoxicity against human MBC2 cells assessed as cell viability at 1 to 10 nM for 3 days in presence of galunisertib; type: functional, cell-based; details: dose 1-10 nM, time 3.0 day
MDA-MB-231 [30] = test: Induction of cell cycle arrest in human MDA-MB-231 cells assessed as DNA damage by measuring gamma H2AX phosphorylation at 10 nM for 3 days in presence of galunisertib by Western blot analysis; type: functional, cell-based; details: time 3.0 day
MBC2 [31] = test: Cytotoxicity against human MBC2 cells assessed as cell viability at 1 to 10 nM for 3 days in presence of OCIR-9429; type: functional, cell-based; details: dose 1-10 nM, time 3.0 day
MDA-MB-231 [32] = test: Induction of cell cycle arrest in human MDA-MB-231 cells assessed as accumulation of cells in S phase at 10 nM for 3 days in presence of galunisertib by BrDU and PI staining based flow cytometric analysis (reference value: 45.7%); type: functional; details: time 3 day
MBC26 [33] = test: Cytotoxicity against human MBC26 cells assessed as cell viability for 3 days at 1 to 10 nM in presence of OCIR-9429; type: functional, cell-based; details: dose 1-10 nM, time 3.0 day
MDA-MB-231 [34] = test: Induction of cell cycle arrest in human MDA-MB-231 cells assessed as DNA damage by measuring gamma H2AX phosphorylation at 10 nM for 3 days in presence of OICR-9429 by Western blot analysis; type: functional, cell-based; details: time 3.0 day
MDA-MB-231 [35] = test: Induction of cell cycle arrest in human MDA-MB-231 cells assessed as accumulation of cells in G2/M phase at 10 nM for 3 days in presence of OCIR-9429 by BrDU and PI staining based flow cytometric analysis (reference value: 19.3%); type: functional; details: time 3 day
MDA-MB-231 [36] = test: Induction of cell cycle arrest in human MDA-MB-231 cells assessed as accumulation of cells in not cycling S phase at 10 nM for 3 days in presence of OCIR-9429 by BrDU and PI staining based flow cytometric analysis (reference value: 2.5%); type: functional; details: time 3 day
MDA-MB-231 [37] = test: Cytotoxicity against human MDA-MB-231 cells assessed as cell viability at 10 nM for 3 days in presence of galunisertib relative to control; type: functional; details: MDA-MB-231, 72 h, time 3 day, read-out: Activity
MDA-MB-231 [38] = test: Induction of cell cycle arrest in human MDA-MB-231 cells assessed as accumulation of cells in G2/M phase at 10 nM for 3 days in presence of galunisertib by BrDU and PI staining based flow cytometric analysis (reference value: 19.3%); type: functional; details: time 3 day
MDA-MB-231 [39] = test: Induction of cell cycle arrest in human MDA-MB-231 cells assessed as cleaved PARP at 10 nM for 3 days in presence of galunisertib by Western blot analysis; type: functional, cell-based; details: time 3.0 day
MDA-MB-231 [40] = test: Cytotoxicity against human MDA-MB-231 cells assessed as cell viability at 10 nM for 3 days in presence of OCIR-9429 relative to control; type: functional; details: MDA-MB-231, 72 h, time 3 day, read-out: Activity

CN1CCN(c2ccc(-c3cccc(CN4CCOCC4)c3)cc2NC(=O)c2c[nH]c(=O)cc2C(F)(F)F)CC1
Activity (MDA-MB-231 [1]; time 3 day): 2.2%
Activity (MBC26 [2]): inactive
inhibition (MCF-10A): inactive
inhibition (MDA-MB-231 [3]): Dose-Dependent Effect
Activity (MDA-MB-231 [4]; time 3.0 day): Active
Activity (MDA-MB-231 [5]): 19.1%
Activity (MDA-MB-231 [6]; time 3 day): 46%
Activity (MBC2 [7]): inactive
inhibition (MCF10DCIS [8]): Dose-Dependent Effect
inhibition (MBC2 [9]): Active
Activity (MDA-MB-231 [10]; time 3.0 day): Active
Activity (MDA-MB-231 [11]; time 3.0 day): Active
Activity (MDA-MB-231 [12]): 32.3%
Activity (MDA-MB-231 [13]; time 3.0 day): inactive
inhibition (MBC26 [14]): Active

Cc1cccc(-c2nn3c(c2-c2ccnc4ccc(C(N)=O)cc24)CCC3)n1 [GALUNISERTIB]
Activity (MDA-MB-231 [1]; time 3.0 day): inactive
Activity (MDA-MB-231 [15]; time 3.0 day): Active
Activity (MDA-MB-231 [4]; time 3 day): 18.5%
inhibition (MDA-MB-231 [16]): Active
Activity (MBC26 [17]): inactive
Activity (MDA-MB-231 [18]): 48.8%
Activity (MDA-MB-231 [6]; time 3.0 day): inactive
Activity (MBC2 [19]): inactive
Activity (MDA-MB-231 [20]): 1.5%
Activity (MDA-MB-231 [21]; time 3.0 day): Active
Activity (MDA-MB-231 [13]; time 3 day): 30.4%
inhibition (MCF10DCIS [22]): Active

CC(=O)O[C@H]1C(=O)[C@@]2(C)[C@H]([C@H](OC(=O)c3ccccc3)[C@]3(O)C[C@H](OC(=O)[C@H](O)[C@@H](NC(=O)c4ccccc4)c4ccccc4)C(C)=C1C3(C)C)[C@]1(OC(C)=O)CO[C@@H]1C[C@@H]2O [PACLITAXEL]
Activity (MDA-MB-231 [23]): Active
Activity (MDA-MB-231 [24]): 16.7%
Activity (MDA-MB-231 [25]): 8%
Activity (MDA-MB-231 [15]; time 3 day): 9.2%
Activity (MDA-MB-231 [26]): 22.4%
Activity (MDA-MB-231 [27]): 26.7%
Activity (MBC26 [28]): Active
Activity (MBC2 [29]): Active
Activity (MDA-MB-231 [30]): Active
Activity (MBC2 [31]): Active
Activity (MDA-MB-231 [32]): 34%
Activity (MBC26 [33]): Active
Activity (MDA-MB-231 [34]): Active
Activity (MDA-MB-231 [35]): 37.5%
Activity (MDA-MB-231 [10]; time 3 day): 31.7%
Activity (MDA-MB-231 [11]; time 3 day): 19.2%
Activity (MDA-MB-231 [36]): 11.9%
Activity (MDA-MB-231 [21]; time 3 day): 38.6%
viability at 0.01 µM (MDA-MB-231 [37]): 10%
Activity (MDA-MB-231 [38]): 40.1%
Activity (MDA-MB-231 [39]): Active
viability at 0.01 µM (MDA-MB-231 [40]): 10%
